The term pEC50 denotes −log10 of the EC50, conventionally taken in molar units. Broadly, the logD is the decadic logarithm of the distribution of all forms, ionised or not, between an organic phase and buffer at a given pH. By pIC50 is commonly meant the IC50 on a negative log10 scale, so that one unit is a factor of ten. A higher pIC50 goes with a small IC50.

Series [1] addresses T1, Nuclear receptor ROR-gamma (Homo sapiens, UniProt P51449).
T1 sequence (P51449 whole entry): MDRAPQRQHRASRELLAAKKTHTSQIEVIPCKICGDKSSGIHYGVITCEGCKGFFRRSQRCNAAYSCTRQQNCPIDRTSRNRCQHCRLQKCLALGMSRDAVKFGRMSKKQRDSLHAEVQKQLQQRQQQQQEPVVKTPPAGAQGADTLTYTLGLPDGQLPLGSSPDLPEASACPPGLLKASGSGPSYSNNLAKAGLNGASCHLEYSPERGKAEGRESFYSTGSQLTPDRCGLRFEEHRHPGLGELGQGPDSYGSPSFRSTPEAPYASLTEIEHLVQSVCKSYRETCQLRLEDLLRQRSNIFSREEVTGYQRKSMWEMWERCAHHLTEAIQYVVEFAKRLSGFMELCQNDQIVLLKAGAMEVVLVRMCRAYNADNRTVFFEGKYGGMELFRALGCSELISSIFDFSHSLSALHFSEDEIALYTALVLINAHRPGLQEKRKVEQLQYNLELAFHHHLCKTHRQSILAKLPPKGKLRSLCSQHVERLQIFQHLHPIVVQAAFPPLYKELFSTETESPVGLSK
Nature of the series: Inverse agonist activity at N-terminal 6xHis-tagged human RORc ligand binding domain (241 to 486) expressed in bacterial expression system assessed as inhibition of SRC1 co-activator peptide recruitment after 3 hrs by TR-FRET analysis. It is filed as functional. In general terms: Time-resolved FRET reads energy transfer from a long-lived donor to a nearby acceptor.

Series [2] in a line: Lipophilicity, log D of the compound at pH 7.4. It is filed as physicochemical. The following applies: buffer.
Series [3] deals with T2, Peroxisome proliferator-activated receptor gamma (Homo sapiens, UniProt P37231).
T2 sequence (P37231 whole entry): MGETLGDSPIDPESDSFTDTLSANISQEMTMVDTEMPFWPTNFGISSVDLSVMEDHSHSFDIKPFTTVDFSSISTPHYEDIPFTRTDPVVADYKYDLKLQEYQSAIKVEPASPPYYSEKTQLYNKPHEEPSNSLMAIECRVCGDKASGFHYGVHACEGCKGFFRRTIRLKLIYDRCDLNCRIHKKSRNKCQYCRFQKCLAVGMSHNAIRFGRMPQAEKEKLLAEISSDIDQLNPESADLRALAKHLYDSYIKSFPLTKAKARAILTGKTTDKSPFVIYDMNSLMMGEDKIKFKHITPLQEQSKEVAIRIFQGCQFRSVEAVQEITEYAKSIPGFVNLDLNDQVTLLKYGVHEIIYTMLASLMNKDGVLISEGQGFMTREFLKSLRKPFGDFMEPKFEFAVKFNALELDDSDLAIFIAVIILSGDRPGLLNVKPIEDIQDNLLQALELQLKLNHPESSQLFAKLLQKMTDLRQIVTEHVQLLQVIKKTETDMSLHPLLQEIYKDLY
Kind of series: Displacement of fluormone PPARgamma green from GST-tagged human PPARgamma-LBD after 2 hrs by fluorescence polarization assay. (In general: Polarisation of emitted light reports the rotation of a fluorescent probe.)

The structures appear in SMILES notation. pEC50, pIC50: −log10 of the molar value.

As for `O=C(c1c(Cl)cccc1C(F)(F)F)c1nc(N2CCC(C(=O)O)CC2)c2ccccn12`, the pEC50 in series [1] was 6.27. For the same compound, the logD in series [2] was determined as 0.4. The same compound had a pIC50 in series [3] below 5.00.

With `N#Cc1cccc(Cl)c1C(=O)c1nc(-c2ccc(C(=O)O)cc2F)c2n1CCCC2`, the pEC50 in series [1] was 6.60. The same compound returned a logD in series [2] of 0.7. In series [3], this compound showed a pIC50 of 5.11.

For the compound `O=C(c1c(Cl)cccc1C(F)(F)F)c1nc([C@H]2CC[C@H](C(=O)O)CC2)c2ccccn12`, in series [1], the pEC50 is 6.40. The compound also came in with a logD in series [2] of 1.3.

Regarding `O=C(c1c(Cl)cccc1C(F)(F)F)c1nc(N2CC[C@@H](C(=O)O)[C@H](O)C2)c2ccccn12` (stereo in doubt), the pEC50 in series [1] is 7.01. This compound also returned a logD in series [2] of 0.4. The compound further gave a pIC50 in series [3] below 5.00.

As for `O=C(O)c1ccc(-c2nc(C(=O)c3ccccc3C(F)(F)F)n3c2CCCC3)c(F)c1`, in series [1], the pEC50 was 6.08. Further, in series [2], the logD was found to be 1.4. Further, the pIC50 in series [3] was 5.25.

In the case of `O=C(c1c(Cl)cccc1C(F)(F)F)c1nc(N2CCC(O)(C(=O)O)CC2)c2ccccn12`, in series [1], the pEC50 is 5.17.

In the case of `O=C(c1c(Cl)cccc1C(F)(F)F)c1nc([C@H]2CC[C@@H](C(=O)O)CC2)c2ccccn12`, the pEC50 in series [1] is 5.37. The same compound yielded a logD in series [2] of 1.8.

For `O=C(O)c1ccc(-c2nc(C(=O)c3c(Cl)cccc3Cl)n3c2CCCC3)c(F)c1`, in series [1], the pEC50 was 7.11. Also, the logD in series [2] amounted to 1.5. In addition, the pIC50 in series [3] was 5.96.

Turning to `O=C(O)c1ccc(-n2nc(C(=O)c3c(Cl)cccc3C(F)(F)F)c3c2CCCC3)cc1`, the pEC50 in series [1] was below 5.00. In addition, in series [2], the logD is -0.3.

As to `O=C(c1c(Cl)cccc1C(F)(F)F)c1nc(N2CC[C@H](C(=O)O)[C@@H](O)C2)c2ccccn12` (stereo in doubt), the pEC50 in series [1] is 6.36. In addition, the logD in series [2] is 0.3. The compound also gave a pIC50 in series [3] below 5.00.

In the case of `O=C(O)c1ccc(-c2nc(C(=O)c3c(Cl)cccc3C(F)(F)F)n3cccnc23)cc1`, in series [1], the pEC50 was 7.08. Besides, in series [2], the logD came out at 0.3. Besides, the pIC50 in series [3] was 5.38.

For `COc1cccc(C(F)(F)F)c1C(=O)c1nc(-c2ccc(C(=O)O)cc2F)c2n1CCCC2`, the pEC50 in series [1] was 6.17. This compound gave a pIC50 in series [3] of 5.04.

In the case of `O=C(O)c1ccc(-c2nc(C(=O)c3c(F)cccc3Cl)n3c2CCCC3)c(F)c1`, the pEC50 in series [1] is 6.72. The logD in series [2] came out at 1.2. In series [3], this compound gave a negative-log IC50 (pIC50) of 5.54.

On to `O=C(O)c1ccc(-c2cn3c(n2)C(c2c(Cl)cccc2C(F)(F)F)OCC3)cc1` (centres undefined), for which the pEC50 in series [1] is below 5.00.

Take `O=C(O)c1ccc(-c2nc(C(=O)c3c(Cl)cccc3C(F)(F)F)n3c2CCCC3)cc1`: the pEC50 in series [1] is 7.24. In series [2], the logD was 0.8. The pIC50 in series [3] is 5.68.

Consider `O=C(c1c(Cl)cccc1C(F)(F)F)c1nc(C2=CCC(C(=O)O)CC2)c2ccccn12` (centres undefined), for which the pEC50 in series [1] is 7.00. Moreover, the logD in series [2] is 1.5. The pIC50 in series [3] was 5.74.

For the compound `N#Cc1cccc(C(F)(F)F)c1C(=O)c1nc(-c2ccc(C(=O)O)cc2F)c2n1CCCC2`, the negative-log EC50 (pEC50) in series [1] was 6.66. The compound also came in with a logD in series [2] of 0.7. In series [3], this compound showed a pIC50 below 5.00.

In the case of `O=C(O)c1ccc(-c2nn(C(=O)c3c(Cl)cccc3C(F)(F)F)c3ccccc23)cc1`, the logD in series [2] was 2.9.

In the case of `COc1cccc(Cl)c1C(=O)c1nc(-c2ccc(C(=O)O)cc2F)c2n1CCCC2`, the pEC50 in series [1] is 6.62. Further, the logD in series [2] amounted to 0.8. The compound further showed a pIC50 in series [3] of 5.26.

Take `O=C(O)c1ccc(-c2nc(C(=O)c3c(Cl)cccc3C(F)(F)F)n3ccncc23)cc1`: the pEC50 in series [1] was 5.59. This compound also showed a logD in series [2] of 0.7.

The values above are taken from ChEMBL document CHEMBL3596163, “Discovery of imidazo[1,5-a]pyridines and -pyrimidines as potent and selective RORc inverse agonists” (Bioorg Med Chem Lett, 2015).
